{"source": "patent US9339581B2", "about": "“Absorbent and absorbent article provided therewith” (UNICHARM CORPORATION, priority 2012, dated 2016)", "origin": "cited, not measured here", "settings": "at 20° C.; cited from earlier work", "data": [{"compound": "CCCCC(=O)CCCC", "note": "[5-nonanone]", "values": [{"measurement": "vapor pressure", "result": "about 230 Pa"}]}]}
